# Data taken from publication PMC5635026, “Homo-PROTACs: bivalent small-molecule dimerizers of the VHL E3 ubiquitin ligase to induce self-degradation” (Nature Communications, 2017).
# Tests used:
# pVHL19 [1] = biological target: T1, pVHL19 (Homo sapiens, UniProt P40337); assay: Immunoblot of pVHL19 protein level in HeLa cells after compound treatment; type: cell-based; design: endogenous in cells; host or cells: HeLa; settings: 10 h, read-out: pVHL19 band quantification normalized to 0.1% DMSO
# Method: (§1) Cell culture. Human cell lines HeLa, U2OS and HEK 293, purchased from ATCC, were propagated in DMEM supplemented with 10% fetal bovine serum (FBS), L- glutamine, 100 μg ml^−1 of penicillin/streptomycin at 37 °C and 5% CO2. Cells were maintained for no more than 30 passages. All cell lines were routinely tested for mycoplasma contamination using MycoAlert kit from Lonza. For compound treatment experiments, cells were transferred in six-well plates with either 3 × 10^5 or 5 × 10^5 cells per well in 2 ml of media. At 80% confluence, cells were treated with compounds at the desired concentration, reaching final DMSO concentration of 0.1% v/v. Cells were incubated at 37 °C and 5% CO2 for the desired time before harvesting.
# (§2) Immunoblotting. Cells were lysed in lysis buffer (20 mM Tris pH 8, 150 mM NaCl, 1% Triton × 100) and a protease inhibitor cocktail (Roche) per 10 ml buffer. For protein extracts, the dishes were placed on ice. The media was aspirated and the tissue layer washed twice with ice-cold phosphate buffer saline (PBS). Lysis buffer (120 μl) was added and the cells detached from the surface with a cell scraper. After removal of the insoluble fraction by centrifugation, the protein concentration of the supernatant was determined by Pierce™ Coomassie (Bradford) Protein Assay Kit. Protein extracts were fractionated by SDS-PAGE on 4–12% Tris-Acetate NuPage® Novex® (Life Technologies) polyacrylamide gels and transferred to a nitrocellulose membrane using wet transfer. The membrane was then blocked with 5 % w/v Bovine serum albumin (BSA) in Tris-buffered saline (TBS) with 0.1% w/v Tween-20. For detecting proteins the following primary antibodies in the given concentrations were used: anti-β-Actin (Cell Signaling Technology, 4970S, 13E5) 1:2000, anti-VHL (Cell Signaling Technology, #68547) 1:1000, anti-Hif-1α (BD Biosciences, 610959, clone 54) 1:1,000, anti-hydroxy-HIF-1α (Hyp564) (Cell Signaling Techonology; #3434) 1:1,000, anti-PHD2 (Bethyl Laboratories; A300-322A) 1:1,000, anti-PHD3 (Bethyl Laboratories; A300-327A) 1:1000, anti-CRBN (Proteintech; 11435-1-AP) 1:1,000. Following incubation with a horseradish peroxidase-conjugated secondary antibody (Cell Signaling Technology), the signal was developed using enhanced chemiluminescence (ECL) Western Blotting Detection Kit (Amersham) on Amersham Hyperfilm ECL film (Amersham). Band quantification was performed using ImageJ software and reported as relative amount as ratio of the each protein band relative to the lane’s loading control. The values obtained were then normalized to 0.1% DMSO vehicle control. See Supplementary Fig. 12 for full-scanned images of western-blots shown in the main text figures.
# Target sequence in this assay (P40337 54-213): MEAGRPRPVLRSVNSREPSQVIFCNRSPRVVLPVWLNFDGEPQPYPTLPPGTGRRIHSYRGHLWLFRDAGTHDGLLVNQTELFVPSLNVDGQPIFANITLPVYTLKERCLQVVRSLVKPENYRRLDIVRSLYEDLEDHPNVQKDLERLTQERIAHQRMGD
# Target sequence in this assay (Q15369 whole entry partner): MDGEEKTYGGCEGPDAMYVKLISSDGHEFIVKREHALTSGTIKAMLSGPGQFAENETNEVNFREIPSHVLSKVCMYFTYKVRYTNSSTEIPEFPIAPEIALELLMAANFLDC
# Target sequence in this assay (Q15370 whole entry partner): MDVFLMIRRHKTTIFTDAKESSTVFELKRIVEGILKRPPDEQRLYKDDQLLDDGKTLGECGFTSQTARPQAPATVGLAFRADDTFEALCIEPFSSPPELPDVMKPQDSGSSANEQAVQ
# pVHL19 [2] = biological target: T1, pVHL19; design: made in house; method as in PMID 25166285; settings: ITC, ref [18]; cited from earlier work
# Target sequence in this assay (P40337 54-213): as the sequence (P40337 54-213) above
# Target sequence in this assay (Q15369 17-112 partner limits assumed): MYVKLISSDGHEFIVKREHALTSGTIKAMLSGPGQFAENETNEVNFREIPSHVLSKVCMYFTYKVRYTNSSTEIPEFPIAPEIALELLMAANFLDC
# Target sequence in this assay (Q15370 1-104 partner limits assumed): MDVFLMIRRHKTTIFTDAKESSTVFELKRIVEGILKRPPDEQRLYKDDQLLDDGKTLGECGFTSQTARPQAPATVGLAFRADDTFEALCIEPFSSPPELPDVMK
# pVHL30 = pVHL30 (Homo sapiens, UniProt P40337); assay: Immunoblot of pVHL30 protein level in HeLa cells after compound treatment; type: cell-based; design: endogenous in cells; host or cells: HeLa; settings: 10 h, read-out: pVHL30 band quantification normalized to 0.1% DMSO
# Method: as §1, §2
# Hdy-HIF-1α = assay: Immunoblot of HIF-1α / hydroxylated HIF-1α levels in HeLa cells; type: cell-based, Human
# Method: as §1, §2
# HIF-1α = assay: TMT MS proteomics in HeLa cells, HIF-1α level; type: cell-based, Human; settings: 150 µM, 10 h
# Method: MS proteomics. Sample preparation. HeLa cells were seeded at 5 × 10^6 on a 10 cm plate 16 h before treatment. […] Cells were incubated at 37 °C and 5% CO2 for 10 h before harvesting. Cells were placed on ice and medium was removed and cells were washed twice with cold PBS. Cells were lysed in 0.5 ml of 100 mM Tris pH 8.0, 4% (w/v) SDS supplemented with protease inhibitor cocktail (Roche). The lysate was pulse sonicated briefly and then centrifuged at 17,000 × g for 15 min at 4 °C. The supernatant fraction of cell extract was snap-frozen in liquid nitrogen and stored in −80 °C freezer. Further sample processing, digestion, desalting, labeling and fractionation were performed as previously described.
# nLC-MS/MS analysis. The TMT 10plex fractions were first analyzed as previously described. Briefly, the TMT 10plex fractions were analyzed sequentially on a Q Exactive HF Hybrid Quadrupole-Orbitrap Mass Spectrometer (Thermo Scientific) coupled to an UltiMate 3000 RSLCnano UHPLC system (Thermo Scientific) and EasySpray column (75 μm × 50 cm, PepMap RSLC C18 column, 2 μm, 100 Å, Thermo Scientific). The MS2 isolation window was set to 0.4 Da and the resolution set at 120,000. MS2 resolution was set at 60,000. […] After the first analysis, the TMT labeled fractions were re-analyzed on the Q-Exactive HF using the same instrument settings and a target list generated from a theoretical trypsin digest of VHL. […]
# Chain of pVHL30 (P40337 whole entry): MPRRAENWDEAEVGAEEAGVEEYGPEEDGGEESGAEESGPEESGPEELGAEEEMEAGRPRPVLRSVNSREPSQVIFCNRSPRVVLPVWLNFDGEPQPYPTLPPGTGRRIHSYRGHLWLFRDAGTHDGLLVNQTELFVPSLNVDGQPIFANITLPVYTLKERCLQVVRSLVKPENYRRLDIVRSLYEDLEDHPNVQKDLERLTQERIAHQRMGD
smiles,measurement,setting,value
"CC(=O)N[C@H](C(=O)N1C[C@H](O)C[C@H]1C(=O)NCc1ccc(-c2scnc2C)cc1)C(C)(C)C [VH032, reference compound]",remaining activity at 150 µM,pVHL19 [1],113%
same,ΔG,pVHL19 [2],–9.17 ± 0.02 kcal mol^−1
same,ΔH,pVHL19 [2],–5.53 ± 0.01 kcal mol^−1
same,−TΔS,pVHL19 [2],–3.65 ± 0.02 kcal mol^−1
same,remaining pVHL30 protein level at 150 µM,pVHL30,127%
same,effect on HIF-1α at 1 µM,"Hdy-HIF-1α; HeLa, 1 µM",completely ineffective
same,concentration at which active in cells,Hdy-HIF-1α; inhibitory concentration of the ligand alone in cells,~ 100 µM
same,protein levels of HIF-1α,HIF-1α,increased
